# Values joined by “and” are separate entries in the source; they are usually repeats but may differ in a detail not shown here. Identical values can stand only once.
# What was measured:
# phosphorylation of SMAD2 = experiment: Phosphorylation of SMAD2 (TGF‐β pathway), immunoblot; assay type: cell-based, human; conditions: TGF‐β 2 ng/ml, 15 h
# Description: The levels of proteins were determined by immunoblot assay. […] The lowest concentration at which protein levels started to decrease was normalized by IC50 values for collagen level and used as the y‐axis value. […] The slope and R^2 value were calculated using GraphPad Prism 7.0. […] The activation of the TGF‐β pathway was determined by monitoring the phosphorylation of SMAD2. Immunoblot images are representative of three biologically independent experiments. • The band intensities of the immunoblot images in (C) were quantified using ImageJ (n = 3; One‐way ANOVA; *P < 0.05, **P < 0.01, ***P < 0.001; mean ± SEM). Source data are available online for this figure.
# [1] = target: T1, PARS1 F1097A/E1123A/R1152L (FA/EA/RL) mutant (Homo sapiens, UniProt P07814, E1123A/F1097A/R1152L); experiment: Microscale thermophoresis (MST), PARS1 mutant; assay type: binding; conditions: for Fraction bound: single replicates
# T1 construct: His‐PARS1 (1001–1,512 aa); made in house; host or cells: Escherichia coli
# T1 sequence (P07814 1001-1512 F1097A/E1123A/R1152L): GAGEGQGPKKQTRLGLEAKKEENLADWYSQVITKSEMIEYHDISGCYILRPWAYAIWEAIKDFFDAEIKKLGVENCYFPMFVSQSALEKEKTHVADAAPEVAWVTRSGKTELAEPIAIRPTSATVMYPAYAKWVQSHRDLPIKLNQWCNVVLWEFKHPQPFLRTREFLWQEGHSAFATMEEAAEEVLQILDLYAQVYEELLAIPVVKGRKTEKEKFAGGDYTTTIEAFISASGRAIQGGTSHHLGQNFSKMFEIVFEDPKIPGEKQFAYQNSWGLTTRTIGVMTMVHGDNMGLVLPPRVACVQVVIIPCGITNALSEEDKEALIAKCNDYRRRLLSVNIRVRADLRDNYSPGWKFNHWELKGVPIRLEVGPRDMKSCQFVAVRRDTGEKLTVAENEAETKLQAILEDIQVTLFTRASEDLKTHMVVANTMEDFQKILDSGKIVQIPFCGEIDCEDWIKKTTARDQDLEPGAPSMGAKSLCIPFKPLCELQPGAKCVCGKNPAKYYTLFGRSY
# C57BL/6 mice = experiment: Bleomycin‐induced lung fibrosis, therapeutic model 1 (compounds from a week after bleomycin); assay type: in vivo; conditions: for BALF total cell count, average / BALF total cell count, single animal / Collagen contents, average / Collagen contents, single animal / Fibrotic area, average / Fibrotic area, single animal / SpO2, average / SpO2, single animal: BLM +
# Description: To examine therapeutic efficacy of DWN12088, all experiments were conducted following the international guidelines on the ethical use of experimental animals and approved by the Institutional Animal Care and Use Committee of Daewoong Pharmaceutical (IACUC‐21‐014). C57BL/6 mice (7–8‐week‐old, male, obtained from Orient Bio) were anesthetized with Zoletil and injected intratracheally with 100 μl bleomycin (2 units/kg) (Merck, B8416) to induce lung fibrosis. A group of disease‐free mice (“untreated”) were injected with PBS instead of bleomycin. After a week, mice treated with bleomycin were randomized to (i) vehicle (saline), (ii) HF 0.05 mg/kg, (iii) HF 0.1 mg/kg, and (iv) DWN12088 10 mg/kg groups (n = 5 for each group) according to their body weight. The drugs were orally administered once daily for 2 weeks, and then the outcome was analyzed. For the experiments testing the effect of the compounds 2 weeks after bleomycin challenge, the experiment was approved by IACUC of Daewoong Pharmaceutical (IACUC‐22‐009). The experimental procedures were performed following the methods described previously, with the exception that the compounds were administered 2 weeks after bleomycin challenge. The experiments were conducted as non‐blind tests.
# Mice were anesthetized with Zoletil for 10 min, and a portable mouse pulse oximeter (Veterinary Pulse Oximeter, Berry Electronic) was placed on each mouse's body. The measurements were continued to allow the recording of 3 min of a stable signal.
# The collagen contents of lung tissues were measured using Sircol™ soluble collagen assay (Biocolor Ltd., S1000) following the manufacturer's instructions. Briefly, the right lung lobes were homogenized, and collagen was solubilized in 0.5 M acetic acid. Tissue extracts were incubated with Sirius red dye, and the absorbance was determined at 540 nm using a spectrophotometer. The amount of collagen was expressed relative to the wet weight of the tissues.
# The lung tissues were fixed in paraformaldehyde and embedded in paraffin. The paraffin‐embedded blocks were sectioned at 4 μm and then mounted onto glass slides. After deparaffinization and rehydration, the slides were fixed with Bouin's solution (Sigma Aldrich, HT10132‐1L) for 1 h. Then, the slides were incubated with hematoxylin (Sigma Aldrich, MHS16‐500ML), Biebrich Scarlet (Sigma Aldrich, B‐6008) and acid fuchsin (Sigma Aldrich, A‐3908), phosphomolybdic (DAEJUNG, 6531‐4105) and phosphotungstic acid (DAEJUNG, 6539‐4105), aniline blue (DAEJUNG, 1087‐4125), and then 1% (v/v) acetic acid (DUKSAN, UN2789). After dehydration, the slides were mounted onto cover slips and scanned using slide scanner (3D HISTECH, Pannoramic MIDI). Fibrotic area of the images was quantified by using Image J plugin, color deconvolution 2.
compound,measurement,setting,value
"O=C(CC1NCCCC1O)Cn1cnc2cc(Br)c(Cl)cc2c1=O (stereo not shown) [HF, Halofuginone, reference compound]",SMAD2 phosphorylation,phosphorylation of SMAD2,reduced SMAD2 phosphorylation
same,"Fraction bound, average",[1]; Dose 3.0518 nM,-0.2588
same,Fraction bound,[1]; Dose 3.0518 nM,-0.0691 and -0.4485
same,"Fraction bound, average",[1]; Dose 6.1035 nM,0.0816
same,Fraction bound,[1]; Dose 6.1035 nM,-0.1353 and 0.0688 and 0.3113
same,"Fraction bound, average",[1]; Dose 12.207 nM,-0.0324
same,Fraction bound,[1]; Dose 12.207 nM,-0.1134 and -0.0549 and 0.0712
same,"Fraction bound, average",[1]; Dose 24.4141 nM,0.1754
same,Fraction bound,[1]; Dose 24.4141 nM,0.2387 and 0.0706 and 0.2171
same,"Fraction bound, average",[1]; Dose 48.8281 nM,0.0946
same,Fraction bound,[1]; Dose 48.8281 nM,0.0297 and 0.0849 and 0.1693
same,"Fraction bound, average",[1]; Dose 97.6563 nM,-0.0450
same,Fraction bound,[1]; Dose 97.6563 nM,-0.0271 and 0.1069 and -0.2149
same,"Fraction bound, average",[1]; Dose 195.312 nM,0.0503
same,Fraction bound,[1]; Dose 195.312 nM,0.0657 and 0.2487 and -0.1634
same,"Fraction bound, average",[1]; Dose 390.625 nM,-0.0697
same,Fraction bound,[1]; Dose 390.625 nM,0.2249 and -0.2797 and -0.1544
same,"Fraction bound, average",[1]; Dose 781.25 nM,0.0626
same,Fraction bound,[1]; Dose 781.25 nM,0.0905 and 0.1699 and -0.0724
same,"Fraction bound, average",[1]; Dose 1562.5 nM,0.4132
same,Fraction bound,[1]; Dose 1562.5 nM,0.3970 and 0.3491 and 0.4935
same,"Fraction bound, average",[1]; Dose 3125 nM,0.2921
same,Fraction bound,[1]; Dose 3125 nM,0.2701 and 0.2589 and 0.3472
same,"Fraction bound, average",[1]; Dose 6250 nM,0.4932
same,Fraction bound,[1]; Dose 6250 nM,0.1312 and 0.6482 and 0.7002
same,"Fraction bound, average",[1]; Dose 12500 nM,0.6254
same,Fraction bound,[1]; Dose 12500 nM,0.5193 and 0.6344 and 0.7226
same,"Fraction bound, average",[1]; Dose 25000 nM,0.6785
same,Fraction bound,[1]; Dose 25000 nM,0.6923 and 0.6116 and 0.7317
same,"Fraction bound, average",[1]; Dose 50000 nM,0.8304
same,Fraction bound,[1]; Dose 50000 nM,1.1885 and 0.7220 and 0.5806
same,"Fraction bound, average",[1]; Dose 100000 nM,1.0687
same,Fraction bound,[1]; Dose 100000 nM,0.9757 and 1.0430 and 1.1875
same,SpO2,"C57BL/6 mice; 0.05 mg/kg oral once a day, 2 weeks (Figs 1E and EV4G)",did not show an improvement in SpO2
same,"BALF total cell count, average",C57BL/6 mice; 0.05 mg/kg,10.46 x105 cells
same,"BALF total cell count, single animal",C57BL/6 mice; 0.05 mg/kg,10 x105 cells and 12 x105 cells and 9.3 x105 cells and 11 x105 cells
same,"Collagen contents, average",C57BL/6 mice; 0.05 mg/kg,308.0 μg/right lung
same,"Collagen contents, single animal",C57BL/6 mice; 0.05 mg/kg,314 μg/right lung and 298 μg/right lung and 320 μg/right lung and 264 μg/right lung and 344 μg/right lung
same,"Fibrotic area, average",C57BL/6 mice; 0.05 mg/kg,275.3 % of control
same,"Fibrotic area, single animal",C57BL/6 mice; 0.05 mg/kg,303.9 % of control and 169.0 % of control and 380.1 % of control and 194.5 % of control and 329.1 % of control
same,"SpO2, average",C57BL/6 mice; 0.05 mg/kg,71.2%
same,"SpO2, single animal",C57BL/6 mice; 0.05 mg/kg,72% and 64% and 66% and 76% and 78%
same,"BALF total cell count, average",C57BL/6 mice; 0.1 mg/kg,7.38 x105 cells
same,"BALF total cell count, single animal",C57BL/6 mice; 0.1 mg/kg,7.2 x105 cells and 9 x105 cells and 5.1 x105 cells and 7.4 x105 cells and 8.2 x105 cells
same,"Collagen contents, average",C57BL/6 mice; 0.1 mg/kg,231.8 μg/right lung
same,"Collagen contents, single animal",C57BL/6 mice; 0.1 mg/kg,254 μg/right lung and 195 μg/right lung and 275 μg/right lung and 201 μg/right lung and 234 μg/right lung
same,"Fibrotic area, average",C57BL/6 mice; 0.1 mg/kg,171.2 % of control
same,"Fibrotic area, single animal",C57BL/6 mice; 0.1 mg/kg,180.4 % of control and 138.3 % of control and 115.6 % of control and 249.0 % of control and 172.5 % of control
same,"SpO2, average",C57BL/6 mice; 0.1 mg/kg,80.0%
same,"SpO2, single animal",C57BL/6 mice; 0.1 mg/kg,78% and 81% and 85% and 82% and 74%
same,"collagen deposition, Masson's trichrome staining",C57BL/6 mice; lung tissue (Fig 1H and I),decreased collagen deposition in the interstitial spaces
same,fibrotic properties,"C57BL/6 mice; model 1, drug administration from day 7",significantly reduced fibrotic properties

# — paper PMC10331583, “Control of fibrosis with enhanced safety via asymmetric inhibition of prolyl‐tRNA synthetase 1” (EMBO Molecular Medicine, 2023)
